This is an account of results in patent publication EP0264232A1, “2-Azetidinone derivatives” (TAISHO PHARMACEUTICAL CO. LTD, priority 1986, dated 1988).

The series has as its system ICR strain mice. To be noted: mouse, in vivo, po, 300 mg/kg.

SMILES strings stand for the structures.

Description: Six male ICR strain mice weighing 20 g for each group were administered orally with 300 mg/kg of the test drug (all the test drugs were used in the form of the suspension in 0.5% CMC). Two hours after administration, 5 mm of the tail from the top was cut under pentobarbital anesthesia, and the bleeding was observed by tapping at the cutting site with a filter paper every 15 seconds. The time when the bleeding was observed stopping for one minute is defined as the arrest point of bleeding, and the duration required from the time when the cutting was done to the arrest point of bleeding is defined as the bleeding time. The observation was carried out up to 1200 seconds. Ticlopidine was used as a positive control.

Consider `CC(C=C1C(=O)N(c2ccccc2)C1c1ccccc1)=NOCC(=O)O` (centres unmarked) [Compound 1, 3-(2-carboxymethoxyiminopropylidene)-1,4-diphenyl-2-azetidinone], for which the “Bleeding time ± standard error” value was 417.5 ± 171.22 s.
Under `Clc1ccccc1CN1CCc2sccc2C1` [ticlopidine] stands 1127.5 ± 72.50 (note) seconds.
